Experiment: gradient 5% acetonitrile 3 min, to 50% in 2 min, to 85% in 15 min, held 3 min, 100 µL/min
Details: column: Zorbax Extend-C18 2.1 x 50 mm; eluents: water / acetonitrile, 0.1% formic acid
Procedure, shortened: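 Standards, all pure, were combined into mixtures of ~100 molecules and run at 100 μL/min on a Zorbax Extend-C18 column (2.1 × 50 mm, 1.8 μm) with water and acetonitrile, each containing 0.1% formic acid. A coupled quadrupole time-of-flight mass spectrometer operated in positive and negative ionization mode. Retention time values come from computationally picked adduct peaks, each inspected manually.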

| RP-LC retention time [s] | Compound |
| --- | --- |
| 878 | O=c1c2scc(-c3ccc(Cl)cc3)c2ncn1Cc1cc(=O)n2ccccc2n1 |
| 964 | Cc1ccc(NC(=O)N2CCCC2c2nc(-c3ccccc3)no2)cc1 (centres undefined) |
| 940 | Fc1ccc(OCc2nnc3sc(-c4ccccc4F)nn23)cc1 |
| 620 | CCCN(C)C[C@@H]1CC(F)(F)CN1C1CCN(S(=O)(=O)c2ccccc2C)CC1 |
| 838 | O=C(c1ccc(Cl)cc1)N1CCN(S(=O)(=O)c2cc3c4c(c2)CCC(=O)N4CCC3)CC1 |
| 1060 | O=C(NCCc1ccccc1)Nc1nccn(-c2ccc3c(c2)CCC3)c1=O |
| 560 | CCCC(=O)Nc1ccc2nc(N3CCN(CC)CC3)cc(C)c2c1 |
| 841 | O=C(NCC1CCCO1)c1cc(-c2cccs2)nc2ccccc12 (centres undefined) |
| 726 | CCc1nc2c(=O)n(CC(=O)N3CCCC(C)C3)nc(C)c2s1 (centres undefined) |
| 676 | Cc1c(F)cccc1NC(=O)N1CC(F)(F)C[C@H]1CN1CCCC1 |
| 644 | N#Cc1cccc(-c2cn3c(n2)N(C(=O)c2ccoc2)CCC3)c1 |
| 1020 | COc1ccc(-n2c(=O)c3sccc3n(Cc3nc(-c4cccc(C)c4)no3)c2=O)cc1 |
| 1250 | Cc1nc2cc(-c3noc(-c4ccc(Cl)cc4Cl)n3)ccc2o1 |
| 694 | CCn1c(CCNC(=O)c2ccc(C)cc2C)nc2cccnc21 |
| 599 | CN(C)c1ccc(CNC(=O)CCc2c(-c3ccc(Br)cc3)nc3ccccn23)cc1 |
| 780 | CN1C(=O)C(C)(C(=O)Nc2ccccc2F)Oc2cccnc21 (centres undefined) |
| 1090 | COc1ccc(N2CCN(c3cc(SCC(=O)Nc4ccc(Cl)cc4F)ncn3)CC2)cc1 |
| 921 | O=c1c2nc(-c3ccc(F)cc3F)cn2ccn1-c1ccc(Cl)cc1 |
| 940 | Cc1nn(-c2ccc(-c3noc(C4CC4)n3)cc2)cc1C(=O)NC1CCCC1 |
| 687 | CCCn1cnc2cc(-c3noc(CNC(=O)c4ccc(C)cc4)n3)ccc21 |
| 601 | OC1(c2ccccn2)CCOC2(CCN(Cc3ccccc3OC(F)(F)F)CC2)C1 (centres undefined) |
| 624 | CC1Cn2cc(C(=O)NCCCN3CCOCC3)c(=O)c3c(Cl)ccc(c32)O1 (centres undefined) |

| RP-LC retention time [s] | Compound |
| --- | --- |
| 831 | CC(C)CCNC(=O)c1cccc2c1CCN2C(=O)C1CC1 |
| 808 | Cc1noc(-c2cccc(OC3CN(C(=O)NCC(C)C)C3)c2)n1 |
| 869 | CCCNS(=O)(=O)c1cc(-c2nc(C)cs2)n(CC(=O)N2CCCCC2)c1 |
| 666 | CC1CN(Cc2ccccc2)c2nc3c(c(=O)n(CCN4CCOCC4)c(=O)n3C)n2C1 (centres undefined) |
| 799 | CCC(C)NC(=O)c1ccc(-c2csc(C)n2)cc1 (centres undefined) |
| 681 | CCOC(=O)CCNC(=O)N1CCC(N2CCN(Cc3ccc(C)cc3)C(=O)C2=O)CC1 |
| 856 | Cc1ccc(C2NC(=O)N(CC(=O)Nc3ccc4c(c3)CCC4)C3=C2C(=O)OC3)cc1 (centres undefined) |
| 706 | CCCN1CCN(C(=O)c2cn3ccnc(-c4ccccc4)c3n2)CC1 |
| 762 | Cc1noc(-c2cccc(OC3CN(C(=O)CN4C(=O)CCC4=O)C3)c2)n1 |
| 924 | Cc1ccc(F)c(NS(=O)(=O)c2ccc3c(c2)C(=O)N(C)c2ncccc2O3)c1 |
| 854 | Fc1ccc(C2Cn3nnc(-c4nc(-c5ccccn5)no4)c3CO2)cc1 (centres undefined) |
| 938 | COc1ccc(NC(=O)Cn2c(C)nc3c(sc4nc(-c5ccccc5)ccc43)c2=O)cc1OC |
| 766 | O=C(Nc1ccc(-c2ccno2)cc1)C1CCN(C(=O)C2Sc3ccccc3NC2=O)CC1 (centres undefined) |
| 859 | Cc1nc(S(=O)(=O)N2CCC(C(=O)N3CCN(c4ccc(Cl)cc4)CC3)CC2)cn1C |
| 965 | O=C(Nc1cc(-c2ccccn2)no1)c1ccc2ccccc2n1 |
| 633 | NC(=O)CSc1nnc(CCc2nc3ccccc3s2)o1 |
| 898 | O=c1c2nc(-c3ccc(Br)cc3)cn2ccn1-c1cccc(F)c1 |
| 574 | O=C(NCCN1CCN(S(=O)(=O)c2ccccc2)CC1)c1c(F)cccc1Cl |
| 580 | Cc1cc(N2CCCCC2)nc(NCCNC(=O)Cc2noc3ccccc23)n1 |
| 824 | Cc1ccc(CNC(=O)c2ccc(-c3ccsc3)nc2)o1 |
| 807 | COC(=O)CNC(=O)c1cc2c(=O)n(CC(C)C)c3ccccc3n2n1 |
| 698 | CCNC(=O)c1nc2cc(C)c(C)cc2n(C)c1=O |

The next lines start with the compound.

| Compound | RP-LC retention time [s] |
| --- | --- |
| Cc1ccc(CNC(=O)c2ccc3nn(CC(=O)NCCC4=CCCCC4)c(=O)n3c2)cc1 | 857 |
| CCc1nc2cc(N3CCC(C(=O)N4CCC5(CC4)OCCO5)CC3)cnc2nc1CC | 723 |
| CC1(C)C(=O)N(CC(=O)N2CCN(c3ccc(F)cc3)CC2)c2ccccc21 | 911 |
| Cc1ccc(-n2c(=O)c3c(cc(C)n3C)n(CC(=O)Nc3ccc(F)cc3)c2=O)cc1 | 800 |
| O=C(C1CC1)N1[C@H]2CC[C@@H]1c1cnc(-c3ccc(F)cc3)nc1C2 | 870 |
| CCOC(=O)CSc1nc2ccccc2n1C | 670 |
| CC(=O)Nc1cc(C(=O)NCCC2=CCCCC2)c2ccc(C)nc2c1 | 652 |
| CN1C(=O)Cc2cc(S(=O)(=O)NCc3ccc4c(c3)CCN4C(=O)c3ccc(Cl)cc3)ccc21 | 867 |
| COc1ccccc1-c1noc(Cn2ccn3nc(-c4ccc(Cl)cc4)cc3c2=O)n1 | 1040 |
| CNC(=O)N1CCc2ccc(C(=O)NC(C)C)cc21 | 625 |
| COc1ccc(C(=O)NCCc2cn3cccc(C)c3n2)c(OC)c1 | 551 |
| CCn1cc(C(=O)Nc2ccccc2C)c2cccnc21 | 791 |
| C=CCNC(=O)C1CCCN(c2ncnc3c2oc2ccccc23)C1 (centres undefined) | 674 |
| COc1ccc(CNS(=O)(=O)c2c(C)nn(-c3ccc(-c4ccc(C)cc4)nn3)c2C)cc1 | 1070 |
| CCN1C(=O)COc2ccc(-c3csc(NC(=O)c4cc(OC)cc(OC)c4)n3)cc21 | 1050 |
| CCOC(=O)c1c(C)c(CCC(=O)N2CCCCCC2)n(C)c1C | 897 |
| CCN(CC)C(=O)CSc1nnc(-c2ccc3c(c2)OCCCO3)n1C | 691 |
| CCOC(=O)C1CCN(C(=O)c2cc(=O)c(OCc3ccc(F)cc3)cn2C)CC1 | 750 |
| CCc1nc(-c2cccc(-c3noc(COc4ccc(F)cc4)n3)c2)cs1 | 1290 |
| CCN1CCN(c2ccc(N3CCCC(C(=O)N4CCN(c5ccccn5)CC4)C3)nn2)CC1 (centres undefined) | 574 |
| CCOC(=O)c1cc(S(=O)(=O)N2CCCC2C(=O)N2CCc3ccccc32)cn1C (centres undefined) | 696 |
| Cc1ccc(NC(=O)c2cnc3c(c2)c(=O)n(C)c(=O)n3-c2ccccc2)cc1F | 956 |
| CCN1CCN(c2nc(-c3cccnc3)nc3ccccc23)CC1 | 524 |

| Compound | RP-LC retention time [s] |
| --- | --- |
| Cc1noc([C@@H]2CC(F)(F)CN2S(=O)(=O)c2ccccc2C)n1 | 909 |
| c1ccc(N2CCN(Cc3csc4c3CCCC4)CC2)nc1 | 605 |
| CCN1C(=O)Cc2cc(C(=O)NCc3cccs3)ccc21 | 704 |
| O=C(Nc1ccccc1-n1cccc1)c1cn(-c2ccc(F)cc2)nn1 | 845 |
| CCC1Cn2c(C(=O)NCCc3c[nH]c4ccccc34)cc3c(Cl)ccc(c32)O1 (centres undefined) | 1220 |
| Cc1ccc(-c2cc(C(=O)N3CCC(NC(=O)C4CCCCC4)CC3)[nH]n2)c(C)c1 | 811 |
| CN1C(=O)c2cccn2CC1C(=O)NC1CCCCCC1 (centres undefined) | 731 |
| CN(CC1CCOCC1)C(=O)Nc1ccc(C(F)(F)F)cc1 | 812 |
| COc1ccc(N2CC(c3noc(-c4ccc5c(c4)OCO5)n3)CC2=O)cc1 (centres undefined) | 874 |
| Cc1ccc(S(=O)(=O)N2C[C@@H]3C[C@H]2C[C@@H]3NC(=O)c2cccs2)cc1Cl | 992 |
| CCN(Cc1ccccc1)C(=O)c1ncn2c1C(=O)N(C1CC1)C(C)(C(=O)NCc1ccccc1)C2 (centres undefined) | 742 |
| Cc1occc1C(=O)Nc1nc(-c2ccc3ccccc3c2)cs1 | 1170 |
| COc1ccc(S(=O)(=O)N2CC3CN(C(=O)Cc4cccc(F)c4)CC(C2)O3)cc1 | 825 |
| O=C(COc1ccccc1Cl)NCCCn1nc(-c2ccc(F)cc2)ccc1=O | 807 |
| Cc1cccc(OCc2nc(-c3cccc(-c4csc(C)n4)c3)no2)c1 | 1250 |
| Cc1ccc2ncn(C3CCN(C(=O)Nc4ccccc4C)CC3)c(=O)c2c1 | 754 |
| Cc1cc(OCC(=O)N[C@H](C(=O)O)C(C)C)c2c3c(c(=O)oc2c1)CCCC3 | 837 |
| O=C(Cn1c(=O)c(CCC(=O)NC2CCCC2)nc2ccccc21)NCc1ccccc1Cl | 842 |
| CCOC(=O)C1=C(C)NC(=O)NC1c1cn(-c2ccccc2)nc1-c1ccc(OC)cc1 (centres undefined) | 842 |
| CC(=O)NCC1(O)CCCC(C)C1 (centres undefined) | 663 |
| Cc1cc(-c2ccc3c(c2)CCN3C(=O)C2CCCO2)on1 (centres undefined) | 767 |
| CC1=C(c2ccccc2)S(=O)(=O)N=C1N1CCCN(C(=O)CCC2CCCC2)CC1 | 946 |
